Data reported in ChEMBL document CHEMBL5725286, “Polyfluorinated compounds acting as bruton tyrosine kinase inhibitors” (2017).

Target: Tyrosine-protein kinase BTK (Homo sapiens, UniProt Q06187)
Experiment: HTRF Assay: The enzyme reaction mixture of BTK wild type standard HTRF assay contained 1 nM BTK wild type, 1 μM biotin-TK1 peptide, and 30 μM ATP in a buffer. The enzyme reaction were carried out at room temperature for 60 minutes. 5 μl of 0.2 M EDTA were added to quench the reaction and then […] were added at final concentrations of 2 nM antibody and 62.5 nM XL665. The plates were incubated at room temperature for 60 minutes and then read in the Envision plate reader.

Tyrosine-protein kinase BTK, sequence (Q06187 whole entry): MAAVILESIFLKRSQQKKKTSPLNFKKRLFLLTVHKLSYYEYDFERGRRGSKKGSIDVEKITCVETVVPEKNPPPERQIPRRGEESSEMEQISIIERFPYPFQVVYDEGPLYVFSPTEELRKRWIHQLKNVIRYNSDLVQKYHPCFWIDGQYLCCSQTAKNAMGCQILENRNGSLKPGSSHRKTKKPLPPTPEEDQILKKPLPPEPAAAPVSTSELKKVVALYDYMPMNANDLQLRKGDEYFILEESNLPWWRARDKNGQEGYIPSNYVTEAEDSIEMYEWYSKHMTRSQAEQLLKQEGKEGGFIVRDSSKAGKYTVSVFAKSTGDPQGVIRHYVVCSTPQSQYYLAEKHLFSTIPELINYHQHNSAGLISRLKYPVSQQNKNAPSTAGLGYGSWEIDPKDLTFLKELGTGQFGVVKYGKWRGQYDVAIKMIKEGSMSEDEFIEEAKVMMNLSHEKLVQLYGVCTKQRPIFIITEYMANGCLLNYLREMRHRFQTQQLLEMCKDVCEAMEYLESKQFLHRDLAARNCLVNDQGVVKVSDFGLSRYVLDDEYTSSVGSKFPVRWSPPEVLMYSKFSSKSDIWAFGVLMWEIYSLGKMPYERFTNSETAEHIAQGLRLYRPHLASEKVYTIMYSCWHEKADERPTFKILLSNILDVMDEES

## Nc1ncnc2c1c(-c1ccc(Oc3c(F)c(F)cc(F)c3F)cc1F)nn2C1CCC(NC(=O)CSSCC(=O)NC2CCC(n3nc(-c4ccc(Oc5c(F)c(F)cc(F)c5F)cc4F)c4c(N)ncnc43)CC2)CC1 (stereo unspecified)
  IC50: 22 nM
